Columns and labels:
Caco-2 cells = assay: Caco-2 permeability assay; type: in vitro ADME; conditions: for Caco-2: Papp A-B: Caco-2, apical to basolateral
Procedure: Exemplary compounds were tested for cell permeability in Caco-2, MDCKII-MDR1 and MDCKII-BCRP cell lines with efflux transporter engagement inferred from the efflux ratios determined. Procedures and results are described below. […] This feature of certain compounds is in part due to efflux transporter engagement. See, for instance, exemplary such compounds included in data tables below.
The transport buffer in the study was HBSS with 10.0 mM HEPES at pH 7.40±0.05. Test compound was tested at 2.00 μM bi-directionally in duplicate. Digoxin was tested at 10.0 μM bi-directionally in duplicate, while nadolol and metoprolol were tested at 2.00 μM in A to B direction in duplicate. Final DMSO concentration was adjusted to less than 1%. The plate was incubated for 2 hours in CO2 incubator at 37±1° C., with 5% CO2 at saturated humidity without shaking. And all samples after mixed with acetonitrile containing internal standard were centrifuged at 3200×g for 10 min. For nadolol and metoprolol, 200 μL supernatant solution was diluted with 600 μL ultra-pure water for LC-MS/MS analysis. For digoxin and test compounds, 200 μL supernatant solution was diluted with 200 μL ultra-pure water for LC-MS/MS analysis. Concentrations of test and control compounds in starting solution, donor solution, and receiver solution were quantified by LC-MS/MS methodologies, using peak area ratio of analyte/internal standard.
After transport assay, lucifer yellow rejection assay was applied to determine the Caco-2 cell monolayer integrity.
[…] And permeation of lucifer yellow through the monolayer was measured to evaluate the cellular integrity.
The apparent permeability coefficient Papp (cm/s) was calculated using the equation: Papp=(dCr/dt)×Vr/(A×C0), where dCr/dt is the cumulative concentration of compound in the receiver chamber as a function of time (μM/s); Vr is the solution volume in the receiver chamber (0.075 mL on the apical side, 0.25 mL on the basolateral side); A is the surface area for the transport, i.e. 0.0804 cm^2 for the area of the monolayer; C0 is the initial concentration in the donor chamber (μM).
The efflux ratio was calculated using the equation: Efflux Ratio=Papp (BA)/Papp(AB).
Percent recovery was calculated using the equation: % Solution Recovery=100×[(Vr×Cr)+(Vd×Cd)]/(Vd×C0), where Vd is the volume in the donor chambers (0.075 mL on the apical side, 0.25 mL on the basolateral side); Cd and Cr are the final concentrations of transport compound in donor and receiver chambers, respectively.

[1] = system: KIT phosphorylation in M-07e cells; assay: Cell-based KIT phosphorylation in M-07e cells by pKIT ELISA; parameters: species or system human; conditions: SCF stimulation
Procedure, shortened: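 Serum-starved M-07e cells (1 × 10^6/mL, overnight) were treated with compounds (8-point 3-fold series from 1 uM) for 2 h at 37 °C, then stimulated with 100 ng/mL SCF for 5 min. Lysate phospho-KIT was captured on anti-phospho-CD117 plates, detected with anti-pY-HRP, and read at 450 nm against a pc-KIT standard curve.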

| Structure (SMILES) | Caco-2: Efflux Ratio (Caco-2 cells) | Caco-2: Papp A-B (Caco-2 cells) | IC50 [1] [nM] | IC50 ([1]; Homo sapiens) [nM] |
| --- | --- | --- | --- | --- |
| Cc1ccc(-c2noc(CCO)n2)cc1NC(=O)c1cnc2ccccn12 [Compound I-306] | 3.66 | 7.03 10^−6 cm/s | ≤ 50 | – |
| Cc1ccc(-c2noc([C@H]3C[C@@H]3F)n2)cc1NC(=O)c1cnc2cc(OC(C)C)ccn12 [Compound I-88] | 0.79 | 6.24 10^−6 cm/s | ≤ 50 | – |
| CCCNc1ccn2c(C(=O)Nc3cc(-c4noc([C@H]5C[C@@H]5F)n4)ccc3C)cnc2c1 [Compound I-304] | 0.92 | 4.31 10^−6 cm/s | – | – |
| Cc1ccc(-c2noc(CC(O)C(F)F)n2)cc1NC(=O)c1cnc2ccccn12 (stereo not drawn) [Compound I-114] | 4.4 | 6.74 10^−6 cm/s | ≤ 50 | – |
| Cc1ccc(-c2noc(CC(C)(C)O)n2)cc1NC(=O)c1cnc2ccccn12 [Compound I-336] | 2.62 | 9.39 10^−6 cm/s | ≤ 50 | – |
| Cc1ccc(-c2noc(CC(C)O)n2)cc1NC(=O)c1cnc2ccccn12 (racemic) [Compound I-363] | 2.55 | 8.85 10^−6 cm/s | – | – |
| Cc1ccc(-c2noc([C@@H](C)O)n2)cc1NC(=O)c1cnc2ccccn12 [Compound I-270] | 3.35 | 8.5 10^−6 cm/s | – | – |
| Cc1ccc(-c2noc(C3CCC3F)n2)cc1NC(=O)c1cnc2ccccn12 (racemic) [Compound I-377] | – | – | ≤ 50 | – |
| Cc1ccc(-c2noc(C3(O)CC(F)(F)C3)n2)cc1NC(=O)c1cnc2ccccn12 [Compound I-380] | 3.45 | 7.5 10^−6 cm/s | – | – |
| Cc1ccc(-c2noc([C@H]3C[C@@H]3F)n2)cc1NC(=O)c1cnc2ccc(C#N)cn12 [Compound I-384] | 0.90 | 16.5 10^−6 cm/s | – | – |
| Cc1ccc(-c2noc(C3CC(F)C3)n2)cc1NC(=O)c1cnc2ccccn12 (stereo not drawn) [Compound I-381] | 0.97 | 17.1 10^−6 cm/s | ≤ 50 | – |
| COC(=O)N1CC(c2nc(-c3ccc(C(F)F)c(NC(=O)c4cnc5ccccn45)c3)no2)C1 [Compound I-225] | 1.37 | 9.62 10^−6 cm/s | ≤ 50 | – |
| COc1ccc2ncc(C(=O)Nc3cc(-c4noc(C[C@@H](C)O)n4)ccc3C)n2c1 [Compound I-119] | – | – | ≤ 50 | – |
| Cc1ccc(-c2noc(C(C)O)n2)cc1NC(=O)c1cnc2ccccn12 (racemic) [Compound I-364] | 3.09 | 8.39 10^−6 cm/s | – | – |
| Cc1ccc(-c2noc(C3CCS(=O)(=O)C3)n2)cc1NC(=O)c1cnc2ccccn12 (racemic) [Compound I-389] | 25.4 | 1.25 10^−6 cm/s | – | – |
| Cc1nc(-c2ccc(C)c(NC(=O)c3cnc4ccc(N(C)C)cn34)c2)no1 [Compound I-205] | – | – | ≤ 50 | – |
| COc1ccn2c(C(=O)Nc3cc(-c4noc(CC5CC(F)(F)C5)n4)ccc3C)cnc2c1 [Compound I-91] | – | – | ≤ 50 | – |
| Cc1ccc(-c2noc(C(C)NS(C)(=O)=O)n2)cc1NC(=O)c1cnc2ccccn12 (single isomer, unassigned) [Compound I-237] | 57.6 | 0.50 10^−6 cm/s | 50 to 500 | – |
| COc1ccn2c(C(=O)Nc3cc(-c4noc(C[C@H](C)O)n4)ccc3C)cnc2c1 [Compound I-94] | – | – | ≤ 50 | – |
| COC(=O)N1CC(c2nc(-c3ccc(C)c(NC(=O)c4cnc5cc(OC[C@H](C)O)ccn45)c3)no2)C1 [Compound I-262] | – | – | ≤ 50 | – |
| Cc1ccc(-c2noc(C3CCN3)n2)cc1NC(=O)c1cnc2ccccn12 (racemic) [Compound I-394] | 3.48 | 6.31 10^−6 cm/s | – | – |
| Cc1ccc(-c2noc(CC(O)C(F)F)n2)cc1NC(=O)c1cnc2ccccn12 (stereo not drawn) [Compound I-122] | – | – | ≤ 50 | – |
| COCCOCc1ccn2c(C(=O)Nc3cc(-c4noc([C@H]5C[C@@H]5F)n4)ccc3C)cnc2c1 [Compound I-84] | 1.8 | 11.8 10^−6 cm/s | ≤ 50 | – |
| COC(=O)N1CC(c2nc(-c3ccc(C)c(NC(=O)c4cnc5cc(O[C@@H](C)CO)ccn45)c3)no2)C1 (single isomer, unassigned) [Compound I-217] | – | – | 50 to 500 | – |

| Structure (SMILES) | Caco-2: Efflux Ratio (Caco-2 cells) | Caco-2: Papp A-B (Caco-2 cells) | IC50 [1] [nM] | IC50 ([1]; Homo sapiens) [nM] |
| --- | --- | --- | --- | --- |
| COc1ccn2c(C(=O)Nc3cc(-c4noc(C5CC(F)(F)C5)n4)ccc3C)cnc2c1 [Compound I-96] | – | – | ≤ 50 | – |
| Cc1ccc(-c2noc(CC3CC(F)(F)C3)n2)cc1NC(=O)c1cnc2ccccn12 [Compound I-124] | – | – | ≤ 50 | – |
| Cc1ccc(-c2noc(CO)n2)cc1NC(=O)c1cnc2ccccn12 [Compound I-337] | – | – | ≤ 50 | – |
| Cc1ccc(-c2noc([C@H]3CC(F)(F)CN3)n2)cc1NC(=O)c1cnc2ccccn12 [Compound I-359] | 1.19 | 9.88 10^−6 cm/s | 50 to 500 | – |
| Cc1ccc(-c2noc(C3CC4(CCC4)C3)n2)cc1NC(=O)c1cnc2ccccn12 [Compound I-367] | – | – | ≤ 50 | – |
| COC(=O)N1CC(c2nc(-c3ccc(C)c(NC(=O)c4cnn5cc(C#N)ccc45)c3)no2)C1 [Compound I-204] | – | – | 50 to 500 | – |
| Cc1ccc(-c2noc(C3CN(C(=O)CO)C3)n2)cc1NC(=O)c1cnc2ccccn12 [Compound I-287] | 135 | 0.13 10^−6 cm/s | – | – |
| Cc1nc(-c2ccc(C)c(NC(=O)c3cnc4ccccn34)c2)no1 [Compound I-360] | 0.36 | 12.7 10^−6 cm/s | ≤ 50 | – |
| CNC(=O)N1CC(c2nc(-c3ccc(C)c(NC(=O)c4cnc5ccccn45)c3)no2)C1 [Compound I-282] | 152 | 0.14 10^−6 cm/s | – | – |
| COC(=O)N1CC(c2nc(-c3ccc(C)c(NC(=O)c4cnc5cc(OC[C@@H](C)O)ccn45)c3)no2)C1 [Compound I-263] | – | – | ≤ 50 | – |
| Cc1ccc(-c2noc([C@H]3CCC(=O)N3)n2)cc1NC(=O)c1cnc2ccccn12 (racemic) [Compound I-327] | 102 | 0.27 10^−6 cm/s | – | – |
| Cc1ccc(-c2cnc(N3CC(F)(F)C3)o2)cc1NC(=O)c1cnc2ccccn12 [Compound I-213] | – | – | 50 to 500 | – |
| Cc1ccc(-c2noc(C3(C)CC(F)(F)CN3)n2)cc1NC(=O)c1cnc2ccccn12 (racemic) [Compound I-328] | 1.02 | 18.2 10^−6 cm/s | – | – |
| Cc1ccc(-c2noc(C3CC(OCCF)C3)n2)cc1NC(=O)c1cnc2ccccn12 (stereo not drawn) [Compound I-369] | 0.77 | 20.6 10^−6 cm/s | – | – |
| Cc1nc(-c2ccc(C)c(NC(=O)c3cnc4cc(C(F)F)ccn34)c2)no1 [Compound I-134] | – | – | 500 to 5000 | – |
| Cc1ccc(-c2noc([C@H]3C[C@@H]3F)n2)cc1NC(=O)c1cnc2cc(COCC(C)(C)O)ccn12 [Compound I-71, N-[5-[5-[(1R,2S)-2-fluorocyclopropyl]-1,2,4-oxadiazol-3-yl]-2-methyl-phenyl]-7-[(2-hydroxy-2-methyl-propoxy)methyl]imidazo[1,2-a]pyridine-3-carboxamide] | – | – | – | ≤ 50 |
| Cc1ccc(-c2noc(CC3CC3(F)F)n2)cc1NC(=O)c1cnc2ccccn12 (stereo not drawn) [Compound I-125] | – | – | ≤ 50 | – |
| Cc1ccc(-c2noc(C3(N)CC4(CC(F)(F)C4)C3)n2)cc1NC(=O)c1cnc2ccccn12 [Compound I-307] | 1.79 | 9.28 10^−6 cm/s | – | – |
| COc1ccn2c(C(=O)Nc3cc(-c4noc(CC(O)C(F)F)n4)ccc3C)cnc2c1 (single isomer, unassigned) [Compound I-76] | – | – | ≤ 50 | – |
| Cc1ccc(-c2noc([C@H]3C[C@@H]3F)n2)cc1NC(=O)c1cnn2ccccc12 [Compound I-109] | – | – | ≤ 50 | – |
| Cc1ccc(-c2noc(C(C)NS(C)(=O)=O)n2)cc1NC(=O)c1cnc2ccccn12 (single isomer, unassigned) [Compound I-238] | – | – | 50 to 500 | – |
| CCOc1ccn2c(C(=O)Nc3cc(-c4noc([C@H]5C[C@@H]5F)n4)ccc3C)cnc2c1 [Compound I-93] | – | – | ≤ 50 | – |
| COCCS(=O)(=O)N1CC(c2nc(-c3ccc(C)c(NC(=O)c4cnc5ccccn45)c3)no2)C1 [Compound I-235] | – | – | 50 to 500 | – |

— patent publication US20240254119A1 (THIRD HARMONIC BIO, INC., priority 2022, published 2024)
